Patent US12421210B2, “Fused bicyclic heterocycles as therapeutic agents” (NEW YORK UNIVERSITY, priority 2018, dated 2025)

Biological target: human NAMPT enzyme (His-hNAMPT) (Homo sapiens (Human), UniProt P43490)
Test: NAMPT enzymatic inhibition assay (fluorescence, NADH product)
Assay type: biochemical
Details: [HDB]; read-out: NAMPT IC50 (μM) [HDB]

human NAMPT enzyme (His-hNAMPT), sequence (P43490 whole entry): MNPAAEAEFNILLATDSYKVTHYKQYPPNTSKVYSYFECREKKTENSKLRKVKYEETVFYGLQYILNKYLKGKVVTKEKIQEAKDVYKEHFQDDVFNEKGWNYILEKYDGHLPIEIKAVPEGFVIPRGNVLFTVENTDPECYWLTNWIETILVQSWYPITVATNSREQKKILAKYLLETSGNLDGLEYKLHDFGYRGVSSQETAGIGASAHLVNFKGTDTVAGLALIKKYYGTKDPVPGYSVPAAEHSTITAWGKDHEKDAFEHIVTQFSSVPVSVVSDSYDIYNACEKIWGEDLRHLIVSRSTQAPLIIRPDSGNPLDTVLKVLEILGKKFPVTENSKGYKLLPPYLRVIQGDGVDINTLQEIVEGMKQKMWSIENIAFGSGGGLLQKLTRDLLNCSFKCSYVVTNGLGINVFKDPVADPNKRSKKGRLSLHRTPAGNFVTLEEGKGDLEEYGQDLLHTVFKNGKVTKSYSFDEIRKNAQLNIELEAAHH

Compound | IC50
O=C(CCc1cccnc1)NCC[C@@H]1[C@H]2CN(c3nc(Cl)ncc3F)C[C@@H]12 [Example 207, N-(2-((1R,5S,6s)-3-(2-chloro-5-fluoropyrimidin-4-yl)-3-azabicyclo[3.1.0]hexan-6-yl)ethyl)-3-(pyridin-3-yl)propanamide] | < 0.01 µM
O=C(NCC[C@@H]1[C@H]2CN(c3nc(Cl)ncc3F)C[C@@H]12)c1cc(-c2cccnc2)on1 [Example 208, N-(2-((1R,5S,6s)-3-(2-chloro-5-fluoropyrimidin-4-yl)-3-azabicyclo[3.1.0]hexan-6-yl)ethyl)-5-(pyridin-3-yl)isoxazole-3-carboxamide] | < 0.01 µM
O=C(/C=C/c1ccccn1)NCC[C@@H]1[C@H]2CN(c3nc(Cl)ncc3F)C[C@@H]12 [Example 209, (E)-N-(2-((1R,5S,6s)-3-(2-chloro-5-fluoropyrimidin-4-yl)-3-azabicyclo[3.1.0]hexan-6-yl)ethyl)-3-(pyridin-2-yl)acrylamide] | 0.01 to 0.49 µM
O=C(/C=C/c1ccccc1)NCC[C@@H]1[C@H]2CN(c3nc(Cl)ncc3F)C[C@@H]12 [Example 210, N-(2-((1R,5S,6s)-3-(2-chloro-5-fluoropyrimidin-4-yl)-3-azabicyclo[3.1.0]hexan-6-yl)ethyl)cinnamamide] | 0.01 to 0.49 µM
O=C(/C=C/c1ccc(O)nc1)NCC[C@@H]1[C@H]2CN(c3nc(Cl)ncc3F)C[C@@H]12 [Example 211, (E)-N-(2-((1R,5S,6s)-3-(2-chloro-5-fluoropyrimidin-4-yl)-3-azabicyclo[3.1.0]hexan-6-yl)ethyl)-3-(6-hydroxypyridin-3-yl)acrylamide] | 0.01 to 0.49 µM
COc1ccc(/C=C/C(=O)NCC[C@@H]2[C@H]3CN(c4nc(Cl)ncc4F)C[C@@H]23)cn1 [Example 212, (E)-N-(2-((1R,5S,6s)-3-(2-chloro-5-fluoropyrimidin-4-yl)-3-azabicyclo[3.1.0]hexan-6-yl)ethyl)-3-(6-methoxypyridin-3-yl)acrylamide] | 0.01 to 0.49 µM
O=C(NCC[C@@H]1[C@H]2CN(c3nc(Cl)ncc3F)C[C@@H]12)c1cnc2nccn2c1 [Example 213, N-(2-((1R,5S,6s)-3-(2-chloro-5-fluoropyrimidin-4-yl)-3-azabicyclo[3.1.0]hexan-6-yl)ethyl)imidazo[1,2-a]pyrimidine-6-carboxamide] | 0.01 to 0.49 µM
O=C(/C=C/c1ccncc1)NCC[C@@H]1[C@H]2CN(c3nc(Cl)ncc3F)C[C@@H]12 [Example 214, (E)-N-(2-((1R,5S,6s)-3-(2-chloro-5-fluoropyrimidin-4-yl)-3-azabicyclo[3.1.0]hexan-6-yl)ethyl)-3-(pyridin-4-yl)acrylamide] | 0.01 to 0.49 µM
O=C(CCc1ccncc1)NCC[C@@H]1[C@H]2CN(c3nc(Cl)ncc3F)C[C@@H]12 [Example 215, N-(2-((1R,5S,6s)-3-(2-chloro-5-fluoropyrimidin-4-yl)-3-azabicyclo[3.1.0]hexan-6-yl)ethyl)-3-(pyridin-4-yl)propanamide] | 1 to 29 µM
O=C(NCC[C@@H]1[C@H]2CN(c3nc(Cl)ncc3F)C[C@@H]12)c1ccc2ncnn2c1 [Example 217, N-(2-((1R,5S,6s)-3-(2-chloro-5-fluoropyrimidin-4-yl)-3-azabicyclo[3.1.0]hexan-6-yl)ethyl)-[1,2,4]triazolo[1,5-a]pyridine-6-carboxamide] | 0.01 to 0.49 µM
O=C(CCc1ccccn1)NCC[C@@H]1[C@H]2CN(c3nc(Cl)ncc3F)C[C@@H]12 [Example 218, N-(2-((1R,5S,6s)-3-(2-chloro-5-fluoropyrimidin-4-yl)-3-azabicyclo[3.1.0]hexan-6-yl)ethyl)-3-(pyridin-2-yl)propanamide] | 0.01 to 0.49 µM
O=C(COc1cccnc1)NCC[C@@H]1[C@H]2CN(c3nc(Cl)ncc3F)C[C@@H]12 [Example 219, N-(2-((1R,5S,6s)-3-(2-chloro-5-fluoropyrimidin-4-yl)-3-azabicyclo[3.1.0]hexan-6-yl)ethyl)-2-(pyridin-3-yloxy)acetamide] | 0.01 to 0.49 µM
